Activity calls are given as the source filed them.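 Rule for the calls: active = EC50 activation potency at or below 10 µM in this mu opioid counterscreen; inactive = EC50 above 10 µM or never reaching half activation.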

The target of this assay is Mu-type opioid receptor (Homo sapiens) (UniProt P35372). In words: mu opioid receptor activation potency – cell-based, luminescence, dose response, powder samples, counter-screen for mouse HTR2A agonist project, late-stage follow-up (AID 720642). The settings on record: U2OS OPRM1 beta-arrestin complementation. On the technique in general: A counterscreen serves to expose hits that act by an unwanted route or on another target.
Chain of Mu-type opioid receptor (Homo sapiens) (P35372 whole entry, looked up): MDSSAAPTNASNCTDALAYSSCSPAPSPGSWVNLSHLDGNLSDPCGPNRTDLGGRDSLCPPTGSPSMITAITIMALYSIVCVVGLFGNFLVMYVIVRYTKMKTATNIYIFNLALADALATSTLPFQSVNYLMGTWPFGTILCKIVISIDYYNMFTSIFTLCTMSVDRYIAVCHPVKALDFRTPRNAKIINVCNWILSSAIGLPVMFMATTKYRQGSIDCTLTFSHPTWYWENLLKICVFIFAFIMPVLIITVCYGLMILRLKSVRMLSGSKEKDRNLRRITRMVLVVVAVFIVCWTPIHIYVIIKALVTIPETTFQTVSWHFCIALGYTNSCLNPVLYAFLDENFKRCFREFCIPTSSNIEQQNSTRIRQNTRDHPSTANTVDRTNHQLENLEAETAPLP
As usually defined, the EC50 is the midpoint of the concentration-response curve. Regarding `CCOc1ccc(NC(=O)CCN2CCN(c3ccccc3F)CC2)cc1`, the EC50 was > 92.5 µM (inactive).
With `Clc1ccccc1CN1CCN(c2ncccn2)CC1`, the EC50 was > 92.5 µM (inactive).
The result for `OCC1(Cc2cccc(C(F)(F)F)c2)CCN(Cc2cc3ccccc3o2)CC1` reads > 92.5 µM (inactive); that for `CN(c1ccc(C(=O)N2CCN(Cc3ccccc3)CC2)cc1)S(=O)(=O)c1ccc(Cl)cc1`, > 92.5 µM (inactive).
Under `C=CCN1CCc2nc(N)sc2CC1` stands > 92.5 µM (inactive).
On to `Cc1cccc(CN2CCN(c3ncccn3)CC2)c1`, for which the EC50 is > 92.5 µM (inactive).
With `COc1ccc(CC2(CO)CCN(Cc3cc4ccccc4o3)CC2)cc1`, the EC50 was > 92.5 µM (inactive).
As to `COc1ccc(CN2CCN(c3ncccn3)CC2)c(OC)c1`, the EC50 is > 92.5 µM (inactive).
The result for `CCCN(CCC)C1CCc2cccc(O)c2C1` (centres undefined) reads > 92.5 µM (inactive).
The result for `CC1(C)C(C=C(Cl)Cl)C1C(=O)N1CCN(Cc2ccccc2)CC1` (centres undefined) reads > 92.5 µM (inactive); that for `COc1ccc(CN2CCN(c3ccccn3)CC2)c(OC)c1`, > 92.5 µM (inactive); that for `COc1ccccc1C(=O)NCCN1CCN(c2ccccc2)CC1`, > 92.5 µM (inactive).
In the case of `NC1CCc2cc(O)c(O)cc2C1` (centres undefined), the EC50 is > 92.5 µM (inactive).
The result for `Cn1cc(C(F)(F)F)nc1-c1ccc(OCC(O)CNCCOc2ccc(O)c(C(N)=O)c2)cc1` (centres undefined) reads > 92.5 µM (inactive).
Under `c1ccc(CN2CCN(c3ncccn3)CC2)cc1` stands > 92.5 µM (inactive); under `Clc1ccccc1CN1CCN(c2ccccc2)CC1`, > 92.5 µM (inactive).
The result for `CCCN1C[C@H](CSC)C[C@@H]2c3cccc4[nH]cc(c34)C[C@H]21` reads > 92.5 µM (inactive); that for `CC(=O)N1CCC(N2CCN(c3ccccc3F)CC2)CC1`, > 92.5 µM (inactive).
As for `CCCN1CCC[C@H](c2cccc(O)c2)C1`, the EC50 is > 92.5 µM (inactive).
The result for `Oc1ccc(CN2CCN(c3ncccn3)CC2)cc1` reads > 92.5 µM (inactive).
The result for `CCn1c(=O)cc(SCC(=O)NCCCN2CCN(c3ccccc3F)CC2)c2ccccc21` reads > 92.5 µM (inactive).
The result for `Fc1cccc(CN2CCN(c3ncccn3)CC2)c1` reads > 92.5 µM (inactive).
For `O=C(CN1CCN(c2ccccn2)CC1)Nc1ccc(Oc2ccccc2)cc1`, the EC50 was > 92.5 µM (inactive).
On to `COc1cccc(-n2cc(CNCc3cn(C)nc3-c3ccccc3F)cn2)c1`, for which the EC50 was > 92.5 µM (inactive).
Under `O=C(c1ccco1)N1CCN(Cc2ccc(Cl)cc2)CC1` stands > 92.5 µM (inactive); under `COc1ccc(CN2CCN(C(=O)c3ccco3)CC2)cc1OCc1ccccc1`, > 92.5 µM (inactive).
The result for `CCOC(=O)N1CCN(Cc2ccc(OCC(O)CN3CCCCC3)cc2)CC1` (centres undefined) reads > 92.5 µM (inactive).
As to `Cc1ccc(CN2CCN(c3ncccn3)CC2)o1`, the EC50 was > 92.5 µM (inactive).
Under `Clc1ccc(CN2CCN(c3ncccn3)CC2)cc1` stands > 92.5 µM (inactive); under `COc1ccc(CN2CCN(c3ncccn3)CC2)c(C)c1C`, > 92.5 µM (inactive).
The result for `COc1cccc(OCC(O)CN2CCN(c3ccccn3)CC2)c1` (centres undefined) reads > 92.5 µM (inactive); that for `CC1CC(C)CN(CCOc2cccc(Cl)c2Cl)C1` (centres undefined), > 92.5 µM (inactive).
The result for `Cc1ccsc1CN1CCN(c2ccccn2)CC1` reads > 92.5 µM (inactive).
`Brc1cccc(CN2CCN(c3ncccn3)CC2)c1`: the EC50 is > 92.5 µM (inactive).
Under `CC(=O)N1CCc2cc(C(=O)CN3CCN(c4cccc(Cl)c4)CC3)ccc21` stands > 92.5 µM (inactive); under `CCOC(=O)C1CCN(Cc2cccc(Oc3ccc(Cl)cc3)c2)CC1`, > 92.5 µM (inactive).
Regarding `CCc1ccc(CN2CCN(C(=O)c3ccco3)CC2)cc1`, the EC50 is > 92.5 µM (inactive).
`c1ccc(N2CCN(Cc3ccsc3)CC2)nc1`: the EC50 is > 92.5 µM (inactive).
The result for `Cc1cccc(CN2CCN(c3ccccn3)CC2)c1` reads > 92.5 µM (inactive).
The result for `Fc1ccc(F)c(CN2CCN(c3ncccn3)CC2)c1` reads > 92.5 µM (inactive); that for `CC(CCc1ccc(O)cc1)NCCc1ccc(O)c(O)c1` (centres undefined), > 92.5 µM (inactive); that for `OC(COc1ccc2cc(Br)ccc2c1)CN1CCN(c2ccccn2)CC1` (centres undefined), > 92.5 µM (inactive).
Under `Brc1ccc(CN2CCN(c3ccccn3)CC2)s1` stands > 92.5 µM (inactive).
In the case of `Fc1ccccc1CN1CCN(c2ncccn2)CC1`, the EC50 is > 92.5 µM (inactive).
The result for `CC(C)C[C@H]1C(=O)N2CCC[C@H]2[C@]2(O)O[C@](NC(=O)[C@@H]3C=C4c5cccc6[nH]c(Br)c(c56)CC4N(C)C3)(C(C)C)C(=O)N12` (some centres undefined) reads > 92.5 µM (inactive); that for `CC(COc1ccccc1)N1CCC(CO)(Cc2ccccc2)CC1` (centres undefined), > 92.5 µM (inactive); that for `Cc1ccc(CN2CCN(c3ncccn3)CC2)c(C)c1`, > 92.5 µM (inactive).
`COc1cc(Br)cc(CN2CCN(c3ncccn3)CC2)c1O`: the EC50 is > 92.5 µM (inactive).
Under `Clc1ccc(CN2CCN(c3ncccn3)CC2)cc1Cl` stands > 92.5 µM (inactive); under `c1ccc(COc2ccc(CN3CCN(c4ccccn4)CC3)cc2)cc1`, > 92.5 µM (inactive).
The result for `CCOc1cc(CN2CCN(C(=O)c3ccco3)CC2)ccc1OC` reads > 92.5 µM (inactive); that for `COc1cc(CN2CCN(c3ncccn3)CC2)cc(OC)c1`, > 92.5 µM (inactive).
The result for `Cc1ccc(CN2CCN(c3ccccn3)CC2)s1` reads > 92.5 µM (inactive); that for `NC[C@@H]1O[C@H](C23CC4CC(CC(C4)C2)C3)Cc2c1ccc(O)c2O`, > 92.5 µM (inactive).

Values taken from PubChem BioAssay AID720642 (The Scripps Research Institute Molecular Screening Center, 2013).
